Measurements reported in the supplement of paper PMC10307832.

Assays:
Assay in all cases: relative viability (nuclei count vs DMSO), 5 days (fraction); higher = more cells survive
Seliciclib + Vorinostat = compound: CC[C@H](CO)Nc1nc(NCc2ccccc2)c2ncn(C(C)C)c2n1 [Seliciclib] + O=C(CCCCCCC(=O)Nc1ccccc1)NO [Vorinostat] (partner 1 µM)
How it was run: (§1)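 Lung cancer cell lines in 1536-well plates were dosed by pin tool the day after seeding, either with one drug alone or with a fixed anchor-drug dose plus five library-drug doses (not always all listed) in √10 steps. After 5 days, cells were fixed and their nuclei stained in one step (final 0.05% Triton X-100, 1% formaldehyde, 1 ug/ml Hoechst), then counted on 4× images. Relative viability is the nuclei count in treated wells divided by that in vehicle wells. Values are medians of duplicate plates.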

Seliciclib + Dasatinib = compound: CC[C@H](CO)Nc1nc(NCc2ccccc2)c2ncn(C(C)C)c2n1 [Seliciclib] + Cc1nc(Nc2ncc(C(=O)Nc3c(C)cccc3Cl)s2)cc(N2CCN(CCO)CC2)n1 [Dasatinib] (partner 0.075 µM)
How it was run: as §1

Seliciclib + Crizotinib = compound: CC[C@H](CO)Nc1nc(NCc2ccccc2)c2ncn(C(C)C)c2n1 [Seliciclib] + C[C@@H](Oc1cc(-c2cnn(C3CCNCC3)c2)cnc1N)c1c(Cl)ccc(F)c1Cl [Crizotinib] (partner 1 µM)
How it was run: as §1

Seliciclib + Pictilisib = compound: CC[C@H](CO)Nc1nc(NCc2ccccc2)c2ncn(C(C)C)c2n1 [Seliciclib] + CS(=O)(=O)N1CCN(Cc2cc3nc(-c4cccc5[nH]ncc45)nc(N4CCOCC4)c3s2)CC1 [Pictilisib] (partner 1 µM)
How it was run: as §1

| Cell Line | relative viability (Seliciclib + Vorinostat; first compound 0.08 µM) | relative viability (Seliciclib + Vorinostat; first compound 0.253 µM) | relative viability (Seliciclib + Vorinostat; first compound 0.8 µM) | relative viability (Seliciclib + Vorinostat; first compound 2.53 µM) | relative viability (Seliciclib + Vorinostat; first compound 8 µM) | relative viability (Seliciclib + Dasatinib; first compound 0.08 µM) | relative viability (Seliciclib + Dasatinib; first compound 0.253 µM) | relative viability (Seliciclib + Dasatinib; first compound 0.8 µM) | relative viability (Seliciclib + Dasatinib; first compound 2.53 µM) | relative viability (Seliciclib + Dasatinib; first compound 8 µM) | relative viability (Seliciclib + Crizotinib; first compound 0.08 µM) | relative viability (Seliciclib + Crizotinib; first compound 0.253 µM) | relative viability (Seliciclib + Crizotinib; first compound 0.8 µM) | relative viability (Seliciclib + Crizotinib; first compound 2.53 µM) | relative viability (Seliciclib + Crizotinib; first compound 8 µM) | relative viability (Seliciclib + Pictilisib; first compound 0.08 µM) | relative viability (Seliciclib + Pictilisib; first compound 0.253 µM) | relative viability (Seliciclib + Pictilisib; first compound 0.8 µM) | relative viability (Seliciclib + Pictilisib; first compound 2.53 µM) | relative viability (Seliciclib + Pictilisib; first compound 8 µM) |
| --- | --- | --- | --- | --- | --- | --- | --- | --- | --- | --- | --- | --- | --- | --- | --- | --- | --- | --- | --- | --- |
| NCI-H1734 | 0.802 | 0.623 | 0.969 | 0.716 | 0.456 | 0.488 | 0.426 | 0.493 | 0.295 | 0.335 | 0.63 | 0.576 | 0.622 | 0.683 | 0.533 | 0.452 | 0.477 | 0.385 | 0.379 | 0.41 |
| NCI-H1755 | 0.654 | 0.748 | 0.696 | 0.692 | 0.637 | 0.423 | 0.404 | 0.429 | 0.26 | 0.404 | 0.84 | 0.85 | 0.84 | 0.973 | 0.854 | 0.414 | 0.504 | 0.389 | 0.339 | 0.386 |
| NCI-H1915 | 0.499 | 0.532 | 0.611 | 0.492 | 0.421 | 0.354 | 0.303 | 0.277 | 0.288 | 0.283 | 0.922 | 0.964 | 0.88 | 0.816 | 0.757 | 0.918 | 1.05 | 0.824 | 0.839 | 0.803 |
| NCI-H1944 | 0.562 | 0.527 | 0.466 | 0.552 | 0.338 | 0.242 | 0.198 | 0.208 | 0.17 | 0.205 | 1.09 | 1.16 | 0.931 | 0.996 | 0.714 | 0.375 | 0.35 | 0.333 | 0.283 | 0.303 |
| NCI-H1975 | 0.689 | 0.608 | 0.66 | 0.652 | 0.46 | 0.409 | 0.374 | 0.424 | 0.326 | 0.314 | 0.966 | 0.984 | 0.917 | 0.924 | 0.662 | 0.296 | 0.298 | 0.352 | 0.214 | 0.271 |
| NCI-H1993 | 0.836 | 0.931 | 0.883 | 0.559 | 0.498 | 0.589 | 0.478 | 0.521 | 0.508 | 0.435 | 0.769 | 0.803 | 0.768 | 0.849 | 0.727 | 0.816 | 0.703 | 0.847 | 0.777 | 0.847 |
| NCI-H2009 | 0.742 | 0.862 | 0.753 | 0.687 | 0.671 | 0.322 | 0.376 | 0.307 | 0.233 | 0.288 | 1.04 | 0.963 | 1.06 | 0.987 | 0.989 | 0.77 | 1.11 | 0.584 | 0.762 | 0.699 |
| NCI-H2023 | 0.641 | 0.736 | 0.649 | 0.5 | 0.43 | 0.534 | 0.407 | 0.606 | 0.434 | 0.477 | 0.554 | 0.578 | 0.682 | 0.595 | 0.555 | 0.227 | 0.224 | 0.232 | 0.164 | 0.182 |
| NCI-H2085 | 0.763 | 0.762 | 0.756 | 0.74 | 0.556 | 0.219 | 0.274 | 0.256 | 0.294 | 0.251 | 0.866 | 0.767 | 0.9 | 0.862 | 0.706 | 0.504 | 0.533 | 0.394 | 0.493 | 0.425 |
| NCI-H2087 | 0.802 | 0.677 | 0.686 | 0.725 | 0.314 | 0.874 | 1.07 | 0.898 | 0.704 | 0.754 | 0.909 | 0.833 | 0.956 | 0.828 | 0.846 | 1.03 | 1.12 | 0.508 | 0.813 | 0.832 |
| NCI-H2126 | 0.806 | 0.783 | 0.579 | 0.375 | 0.611 | 0.671 | 0.598 | 0.557 | 0.334 | 0.501 | 0.988 | 0.979 | 0.965 | 0.992 | 0.861 | 0.507 | 0.548 | 0.456 | 0.423 | 0.467 |
| NCI-H2170 | 0.742 |  | 0.774 | 0.687 | 0.663 | 0.547 | 0.464 | 0.472 | 0.636 | 0.52 | 1.1 | 0.873 | 1.18 | 1.4 | 1.11 | 0.306 | 0.255 | 0.286 | 0.243 | 0.336 |
| NCI-H2228 | 0.585 | 0.521 | 0.58 | 0.586 | 0.335 | 0.581 | 0.488 | 0.481 | 0.514 | 0.368 | 0.505 | 0.414 | 0.383 | 0.672 | 0.396 | 0.372 | 0.333 | 0.234 | 0.457 | 0.339 |
| NCI-H2347 | 0.595 | 0.656 | 0.443 | 0.566 | 0.432 | 0.323 | 0.35 | 0.209 | 0.248 | 0.302 | 0.711 | 0.741 | 0.742 | 0.763 | 0.595 | 0.645 | 0.6 | 0.321 | 0.829 | 0.448 |
| NCI-H2405 | 1.06 | 1.2 | 0.98 | 0.742 | 0.739 | 0.211 | 0.219 | 0.197 | 0.171 | 0.212 | 0.755 | 0.841 | 0.807 | 0.877 | 0.794 | 0.462 | 0.43 | 0.314 | 0.288 | 0.35 |
| NCI-H3122 | 0.925 | 0.979 | 0.759 | 1.09 | 0.86 | 0.719 |  | 0.787 | 0.679 | 0.812 | 0.294 | 0.258 | 0.311 | 0.231 | 0.301 | 0.607 | 0.63 | 0.432 | 0.509 | 0.506 |
